In patent US10464926B2, “Heterobicyclic compounds and their use for the treatment of tuberculosis” (OTSUKA PHARMACEUTICAL CO., LTD., priority 2014, dated 2019):

Row | SMILES | melting point [°C]
1 | CCOCc1ccc(N2CCC(O)(COc3ccc(F)c4c3CCC(=O)N4)CC2)c(F)c1 | 154.2 to 154.5
2 | COc1cc(F)c(N2CCC(O)(COc3ccc(Cl)c4c3CCC(=O)N4)CC2)c(F)c1 | 171.1 to 171.3
3 | CCOc1c(F)c(F)c(N2CCC(O)(COc3ccc(Cl)c4c3CCC(=O)N4)CC2)c(F)c1F | 174.4 to 174.5
4 | Cc1cc(N2CCC(O)(COc3ccc(Cl)c4c3CCC(=O)N4)CC2)c(F)cc1Cl | 212.2 to 213.1
5 | CCOc1cc(F)c(N2CCC(O)(COc3ccc(Cl)c4c3CCC(=O)N4)CC2)c(F)c1 | 180.6 to 181
6 | O=C1CCc2c(OCC3(O)CCN(c4cc(OCc5ccc(Cl)cc5)c(Cl)cc4F)CC3)ccc(F)c2N1 | 205.1 to 205.7
7 | CN(C)CCOc1cc(N2CCC(O)(COc3ccc(F)c4c3CCC(=O)N4)CC2)c(F)cc1Cl | 162.9 to 164.1
8 | CCCc1cc(N2CCC(O)(COc3ccc(F)c4c3CCC(=O)N4)CC2)c(F)cc1Cl | 196.5 to 196.6
9 | Cc1cc(N2CCC(O)(COc3ccc(Cl)c4c3CCC(=O)N4)CC2)c(F)cc1F | 195 to 195.2
10 | CCOc1cnc(N2CCC(O)(COc3ccc(F)c4c3CCC(=O)N4)CC2)c(Cl)c1 | 187.9 to 190.2
11 | O=C1CCc2c(OCC3(O)CCN(c4ncc(Br)cc4F)CC3)ccc(Cl)c2N1 | 231.2 to 233.5
12 | O=C1CCc2c(OCC3(O)CCN(c4cc5c(cc4F)OC(F)(F)O5)CC3)ccc(Cl)c2N1 | 213.4 to 213.5
13 | O=C1CCc2c(OCC3(O)CCN(c4ccc(Cl)cn4)CC3)ccc(F)c2N1 | 192 to 192.3
14 | O=C1CCc2c(OCC3(O)CCN(c4cc5c(cc4F)OC(F)(F)O5)CC3)ccc(F)c2N1 | 226.6 to 226.7
15 | O=C1CCc2c(OCC3(O)CCN(c4ccc(Br)cc4F)CC3)ccc(Cl)c2N1 | 223.1 to 223.2
16 | O=C1CCc2c(OCC3(O)CCN(c4cc(CCOc5ccc(F)cc5)c(Cl)cc4F)CC3)ccc(F)c2N1 | 156 to 156.1
17 | CCSc1cc(F)c(N2CCC(O)(COc3ccc(Cl)c4c3CCC(=O)N4)CC2)c(F)c1 | 157.4 to 157.5

Row | SMILES | melting point [°C]
18 | O=C1CCc2c(OCC3(O)CCN(c4c(F)cc(OCC(F)(F)F)cc4F)CC3)ccc(F)c2N1 | 189.8 to 189.9
19 | O=C1CCc2c(OCC3(O)CCN(c4c(F)cc(Br)cc4F)CC3)cc(F)c(Cl)c2N1 | 200.5 to 200.8
20 | O=C1CCc2c(OC[C@]3(O)CCN(c4c(F)cc(Cl)cc4F)C[C@H]3O)ccc(Cl)c2N1 | 197 to 199
21 | O=C1CCc2c(OC[C@]3(O)CCN(c4ccc(OC(F)(F)F)cc4F)C[C@H]3O)ccc(F)c2N1 | 161.6 to 161.9
22 | O=C1CCc2c(OC[C@]3(O)CCN(c4c(F)cc(Br)cc4F)C[C@H]3O)cc(F)c(F)c2N1 | 204.5 to 204.6
23 | O=C1CCc2c(OC[C@]3(O)CCN(c4nc5ccccc5o4)C[C@H]3O)ccc(F)c2N1 | 190 to 191
24 | N#Cc1cc(F)ccc1N1CCC(O)(COc2ccc(F)c3c2CCC(=O)N3)CC1 | 206 to 206.9
25 | O=C1CCc2c(OCC3(O)CCN(c4nccc5ccccc45)CC3)ccc(F)c2N1 | 198 to 199
26 | O=C1CCc2c(OCC3CCN(c4ncc(Cl)cc4Cl)CC3)ccc(Cl)c2N1 | 190 to 191
27 | COC1(COc2ccc(F)c3c2CCC(=O)N3)CCN(c2ncc(Cl)cc2Cl)CC1 | 181 to 182
28 | N#CC1(COc2ccc(F)c3c2CCC(=O)N3)CCN(c2ncc(Cl)cc2Cl)CC1 | 218
29 | CCNC(=O)O[C@@H]1CN(c2ccc(Cl)cc2F)CC[C@@]1(O)COc1ccc(F)c2c1CCC(=O)N2 | 156 to 157
30 | O=C1CCc2c(OCC3(O)CCN(c4ccsc4)CC3)ccc(F)c2N1 | 200.4 to 200.5
31 | O=C1CCc2c(OCC3(O)CCN(c4ccc(Cl)cc4Br)CC3)ccc(F)c2N1 | 204.9
32 | CCc1ccccc1N1CCC(O)(COc2ccc(F)c3c2CCC(=O)N3)CC1 | 178.6 to 179.3
33 | Cc1cc(N2CCC(O)(COc3ccc(F)c4c3CCC(=O)N4)CC2)ccc1Cl | 216.1 to 216.3
34 | O=C1CCc2c(OCC3(O)CCN(c4cc(OC(F)(F)F)c(Cl)cc4Cl)CC3)ccc(F)c2N1 | 254.8 to 254.9

The remaining lines, values ahead:

Row | melting point [°C] | SMILES
35 | 174.1 to 174.5 | CCOc1cc(F)c(N2CCC(O)(COc3ccc(F)c4c3CCC(=O)N4)CC2)cc1F
36 | 207.8 to 208.7 | O=C1CCc2ccc(OCC3(O)CCN(c4ccc(Cl)cc4F)CC3)cc2N1
37 | 169 to 169.2 | CCOc1cc(F)c(N2CCC(O)(COc3ccc(Cl)c4c3CCC(=O)N4)CC2)cc1F
38 | 208.9 to 209.3 | CCOc1c(F)c(F)c(N2CCC(O)(COc3ccc(F)c4c3CCC(=O)N4)CC2)c(F)c1F
39 | 128.7 to 130.7 | COCCOCCOc1ccc(N2CCC(O)(COc3ccc(F)c4c3CCC(=O)N4)CC2)c(F)c1
40 | 228.1 to 229 | CCOc1cc(N2CCC(O)(COc3ccc(Cl)c4c3CCC(=O)N4)CC2)c(F)cc1Cl
41 | 258.8 to 259 | Cc1cc(Cl)cc(F)c1N1CCC(O)(COc2ccc(F)c3c2CCC(=O)N3)CC1
42 | 209.5 to 210.2 | O=C1CCc2c(OCC3(O)CCN(c4ccc5sccc5c4)CC3)ccc(F)c2N1
43 | 175.9 to 177.1 | O=C1CCc2c(OCC3(O)CCN(c4ccc(OCc5ccc(Cl)cc5Cl)cc4F)CC3)ccc(F)c2N1
44 | 216.7 to 217 | CC(C)Oc1cc(N2CCC(O)(COc3ccc(F)c4c3CCC(=O)N4)CC2)c(F)cc1Cl
45 | 170.6 to 170.8 | COCCOc1cc(N2CCC(O)(COc3ccc(F)c4c3CCC(=O)N4)CC2)c(F)cc1Cl
46 | 143.6 to 143.7 | O=C1CCc2c(OCC3(O)CCN(c4c(F)cc(OC(F)F)cc4F)CC3)ccc(Cl)c2N1
47 | 232.4 to 232.5 | COc1cc(N2CCC(O)(COc3ccc(F)c4c3CCC(=O)N4)CC2)c(F)cc1Cl
48 | 169.6 to 171 | Cc1ccc(N2CCC(O)(COc3ccc(Cl)c4c3CCC(=O)N4)CC2)nc1C
49 | 201.3 to 202.4 | CCc1cc(N2CCC(O)(COc3ccc(F)c4c3CCC(=O)N4)CC2)c(F)cc1Cl
50 | 217.7 to 217.9 | O=C1CCc2c(OCC3(O)CCN(c4c(F)cc(Br)cc4F)CC3)ccc(F)c2N1
51 | 186.7 to 186.8 | CCc1cc(N2CCC(O)(COc3ccc(F)c4c3CCC(=O)N4)CC2)c(F)cc1F
52 | 194.9 to 195.1 | O=C1CCc2c(OCC3(O)CCN(c4ccc(OCc5ccc(C(F)(F)F)cn5)cc4F)CC3)ccc(F)c2N1
53 | 178.6 to 178.7 | O=C1CCc2c(OCC3(O)CCN(c4c(F)cc(OCC(F)(F)F)cc4F)CC3)ccc(Cl)c2N1
54 | 198.4 to 198.5 | O=C1CCc2c(OCC3(O)CCN(c4ccc5c(c4)OC(F)(F)O5)CC3)ccc(F)c2N1
55 | 249 to 250 | O=C1CCc2c(OCC3(O)CCN(c4nc5ccc(Cl)cc5o4)CC3)ccc(F)c2N1
56 | 199 to 201 | O=C1CCc2c(OC[C@]3(O)CCN(c4c(F)cc(Cl)cc4F)C[C@H]3O)cc(F)c(F)c2N1
57 | 216 to 216.3 | O=C1CCc2c(OC[C@]3(O)CCN(c4cc(Cl)c(F)cc4Cl)C[C@H]3O)ccc(F)c2N1
58 | 237.7 to 238.6 | O=C1CCc2c(OC[C@]3(O)CCN(c4cc(Cl)c(F)cc4Cl)C[C@H]3O)ccc(Cl)c2N1
59 | 177.7 to 178 | O=C1CCc2c(OC[C@]3(O)CCN(c4ccccc4F)C[C@H]3O)ccc(F)c2N1

Row | melting point [°C] | SMILES
60 | 196 to 197.1 | O=C1CCc2c(OC[C@]3(O)CCN(c4ccc(OC(F)(F)F)cc4)C[C@H]3O)ccc(F)c2N1
61 | 199 to 199.6 | O=C1CCc2c(OC[C@]3(O)CCN(c4c(F)cc(Br)cc4F)C[C@H]3O)cc(F)c(Cl)c2N1
62 | 194.8 to 195 | CCCOc1cc(F)c(N2CC[C@@](O)(COc3ccc(F)c4c3CCC(=O)N4)[C@H](O)C2)c(F)c1
63 | 228.8 to 229.5 | O=c1ccc2c(OC[C@]3(O)CCN(c4c(F)cc(Cl)cc4F)C[C@H]3O)ccc(Cl)c2[nH]1
64 | 198 to 199 | O=C1CCc2c(OCC3(O)CCN(c4ccc5ccccc5n4)CC3)ccc(F)c2N1
65 | 276 to 277 | O=C1CCc2c(OCC3(C(=O)O)CCN(c4ncc(Cl)cc4Cl)CC3)ccc(F)c2N1
66 | 183 | COC(=O)NC1(COc2ccc(F)c3c2CCC(=O)N3)CCN(c2ncc(Cl)cc2Cl)CC1
67 | 207 to 208 | N#Cc1cc(F)ccc1N1CCC(COc2ccc(F)c3c2CCC(=O)N3)(ON)CC1
68 | 207.9 | O=C1CCc2c(OCC3(O)CCN(c4cc(Cl)c(F)cc4Cl)CC3)ccc(F)c2N1
69 | 208 | O=C1CCc2c(OCC3(O)CCN(c4ccc(F)cc4Cl)CC3)ccc(F)c2N1
70 | 216.1 | O=C1CCc2c(OCC3(O)CCN(c4ccc(C(F)(F)F)cc4)CC3)ccc(F)c2N1
71 | 198.7 to 198.9 | O=C1CCc2c(OCC3(O)CCN(c4cc(F)c(Cl)cc4Cl)CC3)ccc(F)c2N1
72 | 230.9 to 231.2 | O=C1CCc2c(OCC3(O)CCN(c4ccc(Cl)c(Cl)c4)CC3)ccc(F)c2N1
73 | 214 to 215 | Cc1cc(Cl)ccc1N1CCC(O)(COc2ccc(F)c3c2CCC(=O)N3)CC1
74 | 222.6 to 222.7 | COc1cc(N2CCC(O)(COc3ccc(F)c4c3CCC(=O)N4)CC2)ccc1Cl
75 | 203.6 to 203.8 | O=C1CCc2c(OCC3(O)CCN(c4c(Cl)cccc4Cl)CC3)ccc(F)c2N1
76 | 194.9 to 195 | CC(C)c1ccc(N2CCC(O)(COc3ccc(F)c4c3CCC(=O)N4)CC2)cc1
77 | 175 to 177 | N#Cc1cccc(N2CCC(O)(COc3ccc(F)c4c3CCC(=O)N4)CC2)c1
78 | 181 | Cc1ccc(N2CCC(O)(COc3ccc(F)c4c3CCC(=O)N4)CC2)cc1
79 | 204.8 to 205 | O=C1CCc2c(OCC3(O)CCN(c4ccc(Br)cc4F)CC3)ccc(F)c2N1
80 | 197.5 to 197.6 | CCCc1ccc(N2CCC(O)(COc3ccc(F)c4c3CCC(=O)N4)CC2)c(Cl)c1
81 | 167.8 to 168 | CCc1ccc(N2CCC(O)(COc3ccc(F)c4c3CCC(=O)N4)CC2)c(Cl)c1
82 | 193.2 to 193.5 | CCCCOc1ccc(N2CCC(O)(COc3ccc(F)c4c3CCC(=O)N4)CC2)c(F)c1
83 | 174.2 to 174.3 | O=C1CCc2c(OCC3(O)CCN(c4ccc(OC(F)(F)F)cc4F)CC3)ccc(F)c2N1
